Measured values as given in publication PMC10614625 (Proceedings of the National Academy of Sciences of the …, 2023).

Columns and labels:
DcitGLNT1 [1] = target: T1, DcitGLNT1 (Diaphorina citri, UniProt A0A2L0RID4); assay: two-electrode voltage clamp, inward current in Xenopus oocytes; type: cell-based
T1 sequence (A0A2L0RID4 1-508): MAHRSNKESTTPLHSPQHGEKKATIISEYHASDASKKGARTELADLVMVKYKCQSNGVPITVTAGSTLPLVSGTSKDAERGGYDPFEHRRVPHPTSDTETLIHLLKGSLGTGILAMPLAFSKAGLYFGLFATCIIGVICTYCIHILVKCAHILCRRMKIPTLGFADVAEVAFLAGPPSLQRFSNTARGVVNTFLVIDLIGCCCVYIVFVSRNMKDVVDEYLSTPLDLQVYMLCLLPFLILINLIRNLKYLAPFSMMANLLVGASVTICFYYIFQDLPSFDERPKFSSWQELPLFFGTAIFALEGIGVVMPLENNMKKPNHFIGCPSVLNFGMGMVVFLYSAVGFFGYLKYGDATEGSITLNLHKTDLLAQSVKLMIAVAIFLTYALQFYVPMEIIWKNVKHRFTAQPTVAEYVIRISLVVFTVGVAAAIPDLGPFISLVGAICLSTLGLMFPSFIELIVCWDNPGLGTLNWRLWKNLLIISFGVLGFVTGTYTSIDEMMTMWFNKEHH

PcitGLNT1 [2] = target: T2, PcitGLNT1 (Planococcus citri, UniProt A0A2L0RIC1); assay: as above; type: cell-based
T2 sequence (A0A2L0RIC1 1-502): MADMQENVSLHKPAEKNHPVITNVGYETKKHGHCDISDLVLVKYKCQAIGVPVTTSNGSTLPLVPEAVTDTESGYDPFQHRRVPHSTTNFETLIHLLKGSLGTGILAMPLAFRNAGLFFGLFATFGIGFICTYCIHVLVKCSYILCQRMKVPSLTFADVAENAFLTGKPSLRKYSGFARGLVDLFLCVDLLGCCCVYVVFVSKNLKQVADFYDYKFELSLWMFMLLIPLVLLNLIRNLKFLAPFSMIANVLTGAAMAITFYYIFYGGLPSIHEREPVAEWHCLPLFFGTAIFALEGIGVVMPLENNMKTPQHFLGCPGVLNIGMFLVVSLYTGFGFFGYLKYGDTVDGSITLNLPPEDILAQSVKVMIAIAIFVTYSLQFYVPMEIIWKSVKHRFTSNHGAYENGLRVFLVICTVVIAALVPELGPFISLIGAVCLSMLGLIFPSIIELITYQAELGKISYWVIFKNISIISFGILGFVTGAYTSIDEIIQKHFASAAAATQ

PhumGLNT1 [3] = target: T3, PhumGLNT1 (Pediculus humanus, UniProt A0A2L0RIB5); assay: as above; type: cell-based
T3 sequence (A0A2L0RIB5 1-513): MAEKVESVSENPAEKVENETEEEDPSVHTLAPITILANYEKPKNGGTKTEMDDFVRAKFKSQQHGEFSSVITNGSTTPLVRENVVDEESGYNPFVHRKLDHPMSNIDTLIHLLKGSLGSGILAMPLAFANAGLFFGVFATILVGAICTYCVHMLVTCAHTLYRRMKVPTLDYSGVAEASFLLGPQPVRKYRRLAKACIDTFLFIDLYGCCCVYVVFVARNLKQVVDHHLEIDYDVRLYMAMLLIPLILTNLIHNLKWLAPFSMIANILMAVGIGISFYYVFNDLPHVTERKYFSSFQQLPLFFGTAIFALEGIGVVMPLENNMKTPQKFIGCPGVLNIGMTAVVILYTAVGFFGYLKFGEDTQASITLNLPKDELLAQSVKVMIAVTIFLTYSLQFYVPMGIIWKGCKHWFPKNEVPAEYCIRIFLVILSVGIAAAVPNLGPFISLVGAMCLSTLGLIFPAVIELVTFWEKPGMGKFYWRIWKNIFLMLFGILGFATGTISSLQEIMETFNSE

ApGLNT1 [4] = target: T4, ApGLNT1 (Acyrthosiphon pisum, UniProt F8RL01); assay: as above; type: cell-based
T4 sequence (F8RL01 1-500): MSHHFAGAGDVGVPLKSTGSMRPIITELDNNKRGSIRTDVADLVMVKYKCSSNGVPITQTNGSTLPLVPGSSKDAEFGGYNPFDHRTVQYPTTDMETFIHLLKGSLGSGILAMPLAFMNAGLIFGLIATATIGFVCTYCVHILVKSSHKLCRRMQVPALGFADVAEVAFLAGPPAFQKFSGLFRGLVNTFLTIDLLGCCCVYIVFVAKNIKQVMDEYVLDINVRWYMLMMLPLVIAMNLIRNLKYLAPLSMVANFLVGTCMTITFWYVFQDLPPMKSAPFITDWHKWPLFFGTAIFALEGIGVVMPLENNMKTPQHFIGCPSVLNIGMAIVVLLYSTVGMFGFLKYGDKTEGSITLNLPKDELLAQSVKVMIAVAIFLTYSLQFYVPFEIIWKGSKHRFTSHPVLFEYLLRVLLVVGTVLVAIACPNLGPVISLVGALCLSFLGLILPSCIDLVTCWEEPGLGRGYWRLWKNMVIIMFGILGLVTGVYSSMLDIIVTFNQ

PhumGLNT1 [5] = target: T3, PhumGLNT1; assay: cell-based
ApGLNT1 [6] = target: T4, ApGLNT1; assay: cell-based
DcitGLNT1 [7] = target: T1, DcitGLNT1; assay: cell-based
PcitGLNT1 [8] = target: T2, PcitGLNT1; assay: cell-based

EC50 (DcitGLNT1 [1]) [mM] | EC50 (PcitGLNT1 [2]) [mM] | EC50 (PhumGLNT1 [3]) [mM] | EC50 (ApGLNT1 [4]) [mM] | Structure (SMILES) | IC50 (PhumGLNT1 [5]) [mM] | IC50 (ApGLNT1 [6]) [mM] | IC50 (DcitGLNT1 [7]) [mM] | IC50 (PcitGLNT1 [8]) [mM]
35.2 ± 18.5 | 2.1 ± 0.2 | 1.5 ± 0.2 | 5.7 ± 0.8 | NC(=O)CC[C@H](N)C(=O)O [glutamine] |  |  |  | 
 |  |  |  | N=C(N)NCCC[C@H](N)C(=O)O [arginine] | 2.8 ± 2 | 5.1 ± 0.9 | 6.1 ± 0.8 | 2.5 ± 0.2
